Laboratory results: PMC3510438, “The transmembrane tyrosines Y56, Y91 and Y167 play important roles in determining the affinity and transport rate of the rabbit proton-coupled peptide transporter PepT1” (The International Journal of Biochemistry & Cell Biology, 2009)
Residue numbers refer to the chain shown, from its start. Where a SMILES comes first, the peptide text is derived from it.

Key:
Y91F-rPepT1 = target: T1, Y91F-rPepT1 (Oryctolagus cuniculus, UniProt P36836, Y91F); test: Competition of [3H]-D-Phe-L-Gln uptake into Xenopus oocytes, Ki; assay type: cell-based, rabbit; conditions: against 0.4 μM [3H]-D-Phe-L-Gln uptake
T1 construct: expressed in transfected cells; host or cells: Xenopus laevis oocytes injected with cRNA
T1 sequence (P36836 1-707 Y91F): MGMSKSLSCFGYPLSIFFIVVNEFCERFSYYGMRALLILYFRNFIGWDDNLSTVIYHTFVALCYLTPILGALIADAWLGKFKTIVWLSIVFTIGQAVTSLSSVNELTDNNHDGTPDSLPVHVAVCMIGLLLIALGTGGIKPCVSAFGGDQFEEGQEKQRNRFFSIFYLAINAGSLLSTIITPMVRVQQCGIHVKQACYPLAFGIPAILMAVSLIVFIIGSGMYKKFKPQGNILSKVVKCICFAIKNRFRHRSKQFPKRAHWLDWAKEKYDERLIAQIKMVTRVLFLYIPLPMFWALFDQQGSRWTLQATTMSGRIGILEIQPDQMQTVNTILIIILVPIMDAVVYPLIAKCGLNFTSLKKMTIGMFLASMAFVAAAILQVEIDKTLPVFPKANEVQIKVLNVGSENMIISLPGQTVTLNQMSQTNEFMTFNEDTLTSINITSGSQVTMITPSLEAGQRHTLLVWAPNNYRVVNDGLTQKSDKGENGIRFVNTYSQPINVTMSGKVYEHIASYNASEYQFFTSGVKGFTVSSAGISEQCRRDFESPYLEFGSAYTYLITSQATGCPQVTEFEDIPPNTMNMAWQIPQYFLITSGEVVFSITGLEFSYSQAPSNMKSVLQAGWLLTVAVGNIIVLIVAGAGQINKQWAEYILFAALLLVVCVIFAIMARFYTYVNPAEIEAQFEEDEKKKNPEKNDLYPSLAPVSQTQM
Procedure: (§1) rPepT1 constructs were linearised with XbaI (New England Biolabs, UK) and cRNA generated by in vitro transcription (T7 mMessage mMachine, Ambion, Cambridgeshire, UK). Xenopus laevis oocytes were obtained under MS222 anaesthesia (0.2%, w/v) in accordance with the UK Animals (Scientific Procedures) Act, 1986, and maintained at 18 °C in modified Barth's medium (88 mM NaCl, 1 mM KCl, 0.82 mM MgSO4, 2.4 mM NaHCO3, 0.42 mM CaCl2, 10 mM Hepes, 5 mM sodium pyruvate, 50 μg ml^−1 gentamicin (Fluka, Poole, UK), adjusted to pH 7.6 with 1 M NaOH). Transport measurements were performed at least 72 h after micro-injection of oocytes with 27nl cRNA (1 μg/μl), with medium changed daily.
(§2) Uptake of [^3H]-D-Phe-L-Gln (17.4 Ci/mmole, custom synthesised, Cambridge Research Biochemicals, Stockton-on-Tees, UK) was performed as previously described ([Meredith, 2004]). Briefly, 5 oocytes were incubated in 100 μl of uptake medium (95 mM NaCl, 2 mM KCl, 1 mM CaCl2, 0.42 mM MgCl2, 10 mM Tris/Hepes pH 7.4 or Tris/Mes pH 5.5) with tracer (0.4 μM) [^3H]-D-Phe-L-Gln. After incubation, the oocytes were washed sequentially five times in 1 ml of ice-cold 120 mM NaCl solution, lysed individually with 100 μl 2% (w/v) SDS and liquid scintillation counted. As a control non-injected oocytes were also incubated in uptake medium with D-Phe-L-Gln as above.
(§3) The affinity of wild-type and mutant rPepT1 transporters were assessed by competition studies with 0.4 μM [^3H]-D-Phe-L-Gln and Gly-L-Gln present in the uptake medium in concentrations from 0 to 2 mM using the protocol above, and the Ki calculated using the method of [Deves and Boyd (1989)].

Y91R-rPepT1 = target: T2, Y91R-rPepT1 (Oryctolagus cuniculus, UniProt P36836, Y91R); test: as above; assay type: cell-based, rabbit; conditions: pHout 7.4; against 0.4 μM [3H]-D-Phe-L-Gln uptake
T2 construct: expressed in transfected cells; host or cells: Xenopus laevis oocytes injected with cRNA
T2 sequence (P36836 1-707 Y91R): T1 sequence (P36836 1-707 Y91F) with F91R
Procedure: as §1, §2, §3

- Ki (Y91F-rPepT1; pHout 5.5): 1400 ± 310 µM
- Ki (Y91F-rPepT1; pHout 7.4): 460 ± 90 µM
- Ki (Y91R-rPepT1): 3 ± 1 µM
SMILES: NCC(=O)N[C@@H](CCC(N)=O)C(=O)O [Gly-L-Gln] (H-Gly-Gln-OH)
